Assay results as given in the supplement of paper PMC11061612.

How the values were obtained:
[1] = system: TE-10 (Esophageal Squamous Cell Carcinoma); assay: combination Emax (second highest fraction inhibited in the dose matrix, 72 h); higher = more inhibition; extreme values may be limits of the assay
How it was run: (§1)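 After 24 hours at 37°C and 5% CO2 in 1536-well plates, cells in DMEM/F12 or RPMI plus 10% FBS received two-drug dose matrices for 72 hours. Viability came from CellTiter-Glo 2.0 luminescence and was scaled as inhibition, anchored at 0 by vehicle wells and at 1 by blank wells. Combination Emax is taken as the second-highest inhibition in the matrix, and Bliss excess as the observed combination effect less EA + EB − EA·EB, with EA and EB the single-agent effects.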

[2] = system: CAL-27 (Oral Cavity Carcinoma); assay: Bliss excess, mean over the matrix (fraction); higher = more synergy
How it was run: as §1

[3] = system: CA46 (Burkitt's Lymphoma); assay: as above
How it was run: as §1

[4] = system: KYSE-220 (Esophageal Squamous Cell Carcinoma); assay: as above
How it was run: as §1

[5] = system: G-402 (Other Solid Carcinomas); assay: as above
How it was run: as §1

[6] = system: MHH-ES-1 (Ewing's Sarcoma); assay: as above
How it was run: as §1

[7] = system: TE-10 (Esophageal Squamous Cell Carcinoma); assay: as above
How it was run: as §1

[8] = system: DU-4475 (Breast Carcinoma); assay: as above
How it was run: as §1

EB2 (Burkitt's Lymphoma) = assay: as above
How it was run: as §1

WM1552C (Melanoma) = assay: as above
How it was run: as §1

[9] = system: HCC1395 (Breast Carcinoma); assay: as above
How it was run: as §1

[10] = system: HCC1428 (Breast Carcinoma); assay: as above
How it was run: as §1
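Wherever Bliss excess, mean over the matrix is given: after 72 h of two-drug dosing.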

| Structure (SMILES) | combination Emax [1] | Bliss excess [2] | Bliss excess [3] | Bliss excess [4] | Bliss excess [5] | Bliss excess [6] | Bliss excess [7] | Bliss excess [8] | Bliss excess (EB2 (Burkitt's Lymphoma)) | Bliss excess (WM1552C (Melanoma)) | Bliss excess [9] | Bliss excess [10] |
| --- | --- | --- | --- | --- | --- | --- | --- | --- | --- | --- | --- | --- |
| CC1(C)CCC(CN2CCN(c3ccc(C(=O)NS(=O)(=O)c4ccc(NCC5CCOCC5)c([N+](=O)[O-])c4)c(Oc4cnc5[nH]ccc5c4)c3)CC2)=C(c2ccc(Cl)cc2)C1 [Venetoclax] + CN(C)CCCOc1ccc(-c2ccc3ncc4c(c3c2)n(C2CCOCC2)c(=O)n4C)cn1 [AZD0156] (first compound max 1 µM, 7x7, partner max 1 µM) | 0.674 | 0.0065 | -0.026 | -0.0135 | -0.0774 | 0.0177 | 0.0071 | -0.0158 | 0.0106 | -0.0674 | -0.0304 | 0.0145 |
| Cc1c2c(nn1C)CSCc1cc(n(C)n1)CSc1cc(c3ccccc3c1)OCCCc1c(C(=O)O)n(C)c3c-2c(Cl)ccc13 [AZD5991] + C=CCn1c(=O)c2cnc(Nc3ccc(N4CCN(C)CC4)cc3)nc2n1-c1cccc(C(C)(C)O)n1 [AZD1775] (first compound max 1 µM, partner max 1 µM) | 0.942 | -0.0508 | -0.0627 | 0.0181 | 0.051 | -0.0496 | -0.0235 | -0.0582 | -0.0969 | -0.0651 | -0.0172 | -0.0407 |
| CN(CCO)CC[C@H](CSc1ccccc1)Nc1ccc(S(=O)(=O)NC(=O)c2ccc(N3CCC([C@@H](O)c4ccccc4-c4ccc(Cl)cc4)CC3)cc2)cc1S(=O)(=O)C(F)(F)F [AZD4320] + CN(C)CCCOc1ccc(-c2ccc3ncc4c(c3c2)n(C2CCOCC2)c(=O)n4C)cn1 [AZD0156] (first compound max 1 µM, 7x7, partner max 1 µM) | 0.281 | -0.0136 | 0.0092 | -0.0385 | -0.0458 | -0.0062 | -0.0208 | -0.0498 | -0.0028 | -0.0282 | -0.0269 | 0.0307 |
| C[C@@H]1COCCN1c1cc(C2([S@](C)(=N)=O)CC2)nc(-c2ccnc3[nH]ccc23)n1 [AZD6738] + O=C(c1cc(Cc2n[nH]c(=O)c3ccccc23)ccc1F)N1CCN(C(=O)C2CC2)CC1 [Olaparib] (first compound max 10 µM, 7x7, partner max 10 µM) | 0.78 | 0.12 | 0.0138 | -0.0642 | 0.0068 | 0.0366 | -0.0141 | 0.0762 | -0.0553 | 0.0105 | 0.0255 | -0.003 |
| CC1(C)CCC(CN2CCN(c3ccc(C(=O)NS(=O)(=O)c4ccc(NCC5CCOCC5)c([N+](=O)[O-])c4)c(Oc4cnc5[nH]ccc5c4)c3)CC2)=C(c2ccc(Cl)cc2)C1 [Venetoclax] + CCN(CCO)CCCOc1ccc2c(Nc3cc(CC(=O)Nc4cccc(F)c4)[nH]n3)ncnc2c1 [AZD2811] (first compound max 1 µM, 7x7, partner max 1 µM) | 0.59 | -0.0302 | -0.0283 | 0.0335 | -0.0036 | 0.0824 | -0.0502 | 0.0087 | -0.0357 | -0.0804 | -0.01 | 0.118 |
| CC1(C)CCC(CN2CCN(c3ccc(C(=O)NS(=O)(=O)c4ccc(NCC5CCOCC5)c([N+](=O)[O-])c4)c(Oc4cnc5[nH]ccc5c4)c3)CC2)=C(c2ccc(Cl)cc2)C1 [Venetoclax] + C[C@@H](Nc1cc(F)cc(F)c1)c1cc(C(=O)N(C)C)cc2c(=O)cc(N3CCOCC3)oc12 [AZD8186] (first compound max 1 µM, 7x7, partner max 3 µM) | 0.373 | -0.0361 | 0.0323 | -0.0332 | -0.0612 | -0.0248 | -0.0428 | -0.0202 | 0.0231 | -0.0157 | 0.0107 | -0.0147 |
| C=CCn1c(=O)c2cnc(Nc3ccc(N4CCN(C)CC4)cc3)nc2n1-c1cccc(C(C)(C)O)n1 [AZD1775] + O=C(c1cc(Cc2n[nH]c(=O)c3ccccc23)ccc1F)N1CCN(C(=O)C2CC2)CC1 [Olaparib] (first compound max 1 µM, partner max 10 µM) | 0.858 | -0.0431 | -0.0612 | -0.0428 | -0.0761 | -0.0196 | -0.0196 | 0.0395 | -0.019 | -0.0941 | -0.0557 | -0.0279 |
| COc1cccc2c1C(=O)c1c(O)c3c(c(O)c1C2=O)C[C@@](O)(C(=O)CO)C[C@@H]3O[C@H]1C[C@H](N)[C@H](O)[C@H](C)O1 [Doxorubicin] + Cc1cc2ncnn2cc1Nc1ncc2c(n1)n(C1CCOCC1)c(=O)n2C [AZD7648] (first compound max 1 µM, 7x7, partner max 10 µM) | 0.746 | 0.0853 | 0.0813 | 0.0232 | 0.0446 | 0.0697 | 0.0583 | 0.143 | 0.0972 | 0.0398 | -0.0234 | -0.0499 |
| Cc1c2c(nn1C)CSCc1cc(n(C)n1)CSc1cc(c3ccccc3c1)OCCCc1c(C(=O)O)n(C)c3c-2c(Cl)ccc13 [AZD5991] + C1CN(CCC1(C(=O)N[C@@H](CCO)C2=CC=C(C=C2)Cl)N)C3=NC=NC4=C3C=CN4 [Capivasertib] (first compound max 1 µM, 7x7, partner max 3 µM) | 0.901 | 0.0073 | 0.0205 | 0.0187 | 0.0445 | 0.0008 | 0.0484 | -0.0023 | -0.0375 | -0.004 | -0.003 | 0.0136 |
| Cc1c2c(nn1C)CSCc1cc(n(C)n1)CSc1cc(c3ccccc3c1)OCCCc1c(C(=O)O)n(C)c3c-2c(Cl)ccc13 [AZD5991] + Cc1cc2ncnn2cc1Nc1ncc2c(n1)n(C1CCOCC1)c(=O)n2C [AZD7648] (first compound max 1 µM, 7x7, partner max 10 µM) | 0.855 | -0.057 | 0.0187 | 0.0083 | 0.0229 | -0.0323 | -0.0057 | 0.0811 | 0.0285 | -0.0762 | -0.0497 | 0.0018 |
| COc1cccc(OCCCN)c1-c1cc(Nc2cnc(C#N)cn2)n[nH]1 [Prexasertib] + CN(C)CCCOc1ccc(-c2ccc3ncc4c(c3c2)n(C2CCOCC2)c(=O)n4C)cn1 [AZD0156] (first compound max 1 µM, 7x7, partner max 1 µM) | 0.938 | -0.0014 | 0.0713 | -0.026 | 0.0003 | 0.0004 | -0.0174 | -0.0171 | -0.0088 | -0.0036 | -0.046 | -0.0703 |
| Cc1c2c(nn1C)CSCc1cc(n(C)n1)CSc1cc(c3ccccc3c1)OCCCc1c(C(=O)O)n(C)c3c-2c(Cl)ccc13 [AZD5991] + CCN(CCO)CCCOc1ccc2c(Nc3cc(CC(=O)Nc4cccc(F)c4)[nH]n3)ncnc2c1 [AZD2811] (first compound max 1 µM, 7x7, partner max 1 µM) | 0.848 | 0.0403 | 0.0251 | 0.0088 | 0.0271 | 0.0173 | -0.0161 | 0.075 | 0.0391 | -0.0095 | 0.0432 | 0.0469 |
| CC(=O)Nc1cccc(-n2c(=O)n(C3CC3)c(=O)c3c(Nc4ccc(I)cc4F)n(C)c(=O)c(C)c32)c1 [Trametinib] + Cc1nc(-c2cn3c(n2)-c2ccc(-c4cnn(C(C)(C)C(N)=O)c4)cc2OCC3)n(C(C)C)n1 [Taselisib] (first compound max 1 µM, 7x7, partner max 10 µM) | 0.965 | 0.128 | 0.0404 | 0.152 | 0.0104 | 0.0141 | 0.127 | 0.0664 | 0.0658 | 0.0903 | 0.0616 | 0.0116 |
| CCc1c2c(nc3ccc(O)cc13)-c1cc3c(c(=O)n1C2)COC(=O)[C@]3(O)CC [SN-38] + CN(C)CCCOc1ccc(-c2ccc3ncc4c(c3c2)n(C2CCOCC2)c(=O)n4C)cn1 [AZD0156] (first compound max 0.3 µM, 7x7, partner max 1 µM) | 0.725 | 0.0255 | 0.0951 | 0.0574 | 0.003 | 0.0449 | 0.0444 | 0.0129 | 0.0238 | 0.0013 | -0.0024 | -0.0584 |
| COc1cccc(OCCCN)c1-c1cc(Nc2cnc(C#N)cn2)n[nH]1 [Prexasertib] + C[C@@H]1COCCN1C2=NC(=NC(=C2)C3(CC3)[S@](=N)(=O)C)C4=C5C=CNC5=NC=C4 [AZD6738] (first compound max 1 µM, 7x7, partner max 10 µM) | 0.945 | 0.0227 | -0.0755 | -0.0294 | -0.0253 | -0.0161 | -0.0244 | -0.022 | -0.0478 | -0.0372 | -0.0399 | -0.02 |
| COc1cccc(OCCCN)c1-c1cc(Nc2cnc(C#N)cn2)n[nH]1 [Prexasertib] + CCc1c2c(nc3ccc(O)cc13)-c1cc3c(c(=O)n1C2)COC(=O)[C@]3(O)CC [SN-38] (first compound max 1 µM, 7x7, partner max 0.3 µM) | 0.939 | 0.0083 | 0.0035 | -0.0153 | -0.0336 | 0.0134 | -0.0428 | 0.0035 | -0.0439 | -0.0306 | -0.0466 | 0.045 |
| CN(C)CCCOc1ccc(-c2ccc3ncc4c(c3c2)n(C2CCOCC2)c(=O)n4C)cn1 [AZD0156] + C=CCn1c(=O)c2cnc(Nc3ccc(N4CCN(C)CC4)cc3)nc2n1-c1cccc(C(C)(C)O)n1 [AZD1775] (first compound max 1 µM, partner max 1 µM) | 0.808 | -0.0539 | -0.0283 | -0.0432 | -0.0501 | -0.0402 | -0.033 | -0.0036 | -0.0322 | 0.0116 | -0.0648 | -0.115 |
| CC1(C)CCC(CN2CCN(c3ccc(C(=O)NS(=O)(=O)c4ccc(NCC5CCOCC5)c([N+](=O)[O-])c4)c(Oc4cnc5[nH]ccc5c4)c3)CC2)=C(c2ccc(Cl)cc2)C1 [Venetoclax] + Cn1cnc2c(F)c(Nc3ccc(Br)cc3Cl)c(C(=O)NOCCO)cc21 [Selumetinib] (first compound max 1 µM, 7x7, partner max 3 µM) | 0.415 | -0.0087 | -0.068 | 0.0102 | -0.0298 | -0.0424 | -0.0404 | -0.0057 | 0.0012 | -0.0062 | -0.0171 | -0.026 |
| CCN(CCO)CCCOc1ccc2c(Nc3cc(CC(=O)Nc4cccc(F)c4)[nH]n3)ncnc2c1 [AZD2811] + C=CCn1c(=O)c2cnc(Nc3ccc(N4CCN(C)CC4)cc3)nc2n1-c1cccc(C(C)(C)O)n1 [AZD1775] (first compound max 1 µM, partner max 1 µM) | 0.737 | 0.0013 | 0.0165 | -0.0225 | -0.0106 | 0.0089 | 0.0176 | 0.0523 | -0.0165 | 0.0035 | -0.0904 | -0.0478 |
